# Tests used:
# [1] = tested on: Plasmodium chabaudi; test: P. chabaudi infection (10^5 pRBC i.v.) in A/J mice, continuous daily cysteamine treatment, blood parasitemia; assay type: in vivo
# Protocol: A/J and C57BL/6 (B6) mice were purchased from the Jackson Laboratories (Bar Harbor, Me.) and were housed at McGill University according to the guidelines of the Canadian Council on Animal Care. An LDH virus-free isolate of P. chabaudi AS was maintained by weekly passage in A/J mice. […] Following infection, the percentage of pRBC was determined daily on thin blood smears stained with Dif-Quik™ (Dade Behring, Newark, Del.), as described (Fortin A, et al. (2001) Proc Natl Acad Sci USA 98: 10793-10798).
# Cysteamine hydrochloride (Sigma, Burlington ON) was prepared in PBS. […]
# To gain more insight into the anti-malarial effect of cysteamine (Cys) in vivo, the pharmacokinetic characteristics (plasma level) of Cys administered through the sub-cutaneous (s.c.) and intra-peritoneal (i.p) routes was compared. […] Parasitemia was monitored on thin blood smears at days 5, 6 and 7 following infection (FIG. 1B). […]
# It was next determined whether Cys at equivalent dosing to that used in the clinical treatment of nephropathic cystinosis in humans has an effect on the course and severity of P. chabaudi infection in mice. […] The efficacy of different regimens of 50 mg/kg Cys s.c. (number of injections, interval between injections) on replication of P. chabaudi in vivo was evaluated. […]
# [2] = tested on: Plasmodium chabaudi; test: 4-day test, P. chabaudi (10^7 pRBC i.v.) in pantetheinase-deficient A/J mice, blood parasitemia days 4 and 5; assay type: in vivo; details: A/J mice
# Protocol: A/J and C57BL/6 (B6) mice were purchased from the Jackson Laboratories (Bar Harbor, Me.) and were housed at McGill University according to the guidelines of the Canadian Council on Animal Care. An LDH virus-free isolate of P. chabaudi AS was maintained by weekly passage in A/J mice. Mice were infected intravenously into the tail vein (i.v.) with 10^6 or 10^7 pRBC suspended in pyrogen-free saline. Following infection, the percentage of pRBC was determined daily on thin blood smears stained with Dif-Quik™ (Dade Behring, Newark, Del.), as described (Fortin A, et al. (2001) Proc Natl Acad Sci USA 98: 10793-10798).
# Cysteamine hydrochloride (Sigma, Burlington ON) was prepared in PBS. Chloroquine hydrochloride, artesunate and dihydroartemisinin were provided by Dafra Pharmaceuticals; chloroquine was prepared in PBS, artesunate and DHA were prepared in 5% sodium bicarbonate and diluted in water to appropriate concentrations. All solutions were prepared fresh daily, filter sterilized and injections were performed intra-peritoneally (i.p) or subcutaneously (s.c.) for 4 days or according to treatment regimen. Mice were weighed prior to treatment to determine appropriate doses and injection volumes ranged from 100-400 μL per mouse. In the case of animals treated with two drugs, artemisinin derivatives were administered first (due to the short half life of cysteamine), followed by cysteamine 5-10 minutes later on alternate sides. Untreated control animals were injected with PBS alone.
# Groups with normally distributed data points were compared using parametric unpaired t-tests, while groups with non-Gaussian distributions were compared using non-parametric Mann-Whitney tests. Survival differences were analyzed using the Log-Rank test. […] Standard error of percent inhibition was calculated from individual mice compared to the mean parasitemia level of the control group.
# The effect of Cys on the potency and efficacy of the anti-malarial artemisinin derivatives was tested. […] Synergy (Tallarida R J (2001) J Pharmacol Exp Ther 298: 865-872) is defined as a total anti-malarial activity (reduction in blood parasitemia compared to untreated controls in a standard 4-day test) of the two compounds administered together being greater than the sum of the independent activities of the two compounds given alone. We tested combinations of Cys and either artesunate (ART) or dihydroartemisinin (DHA), the bioactive form of artemisinin. Pantetheinase-deficient mice were infected with P. chabaudi (10^7 pRBC, i.v.) and treated with Cys (170 mg/kg) and/or sub-optimal doses of ART (0.2 or 0.5 mg/kg) (FIG. 3A) or DHA (0.15 or 0.3 mg/kg) (FIG. 3B) from day 0-3 and parasitemia was monitored on days 4 and 5. […] Potentiation of the anti-malarial activity of ART (0.5 mg/kg) by Cys was also clearly evident in these C57BL/6 mice at both days 4 and 5 post-infection, with combined treatment causing a 65-71% reduction in parasitemia compared to PBS controls, greater than either compound tested alone (13-29%) (TABLE 1).
# It was subsequently examined whether Cys potentiation of ART was dose dependent. Initially, Cys doses of 60, 100, 140 and 180 mg/kg were tested with a sub-optimal ART dose of 0.2 mg/kg. The drugs were administered from day 0-3 post infection, parasitemia was counted at day 4 and day 5 and the percent inhibition was calculated compared to PBS-treated controls (FIG. 4A). At 0.2 mg/kg, ART alone inhibits parasitemia by ˜20% (day 4) and 40% (day 5) while inhibition by Cys alone was partially dose dependent (varying between 10% and 25%). […] It was also assessed whether Cys could potentiate low doses of artesunate which, given alone, have no significant effect on parasitemia. In this experiment, Cys (170 mg/kg) was administered in combination, or not, with increasing doses of ART (0.05, 0.1, 0.2, 0.4 mg/kg) in the same 4-day experimental protocol.
# [3] = cysteamine 170 mg/kg i.p. alone, days 0-3
smiles,measurement,setting,value
NCCS [Cysteamine],reduction in parasitemia relative to saline injected controls,"[1]; 120 mg/kg Cys daily, either s.c. or i.p., day 5 and 6, p<0.01",50%
same,reduction of blood parasitemia,"[1]; Cys s.c. daily, all regimens: 1×150 mg/kg, 3×50 or 4×50 mg/kg at 2 hr, 3×50 mg/kg at 1 hr intervals (strongest), days 5, 6, 7",40-67%
same,Inhibition of parasitemia Day 4,[2]; [3],28 % PBS control
same,Inhibition of parasitemia Day 5,[2]; [3],23 % PBS control
same,Cys doses as low as which show potentiation of the ART effect,"[2]; lower Cys dose range (20, 40 and 60 mg/kg) with ART (FIG. 4B)",20 to 40 mg/kg
